Laboratory results from PubChem BioAssay (NCI).
Several values for one entry are separate records, joined by “and”; a condition that tells them apart may be missing. Equal entries are not always repeated.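 Cells were grown in 96-well plates and exposed to each compound for 48 hours at five concentrations; endpoints were interpolated linearly between bracketing concentrations, or set to the highest concentration if not reached. Here, GI50 denotes the concentration required for 50% inhibition of growth. At the TGI there is no net growth.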

How the values were obtained:
Assay in all cases: growth of human tumour cells (NCI), 48 h; in the data active means GI50 below about 0.43 µM; inactive means the rest
[1] = system: 786-0 renal
[2] = system: A498 renal
[3] = system: A549 NSCLC
[4] = system: ACHN renal
[5] = system: BT-549 breast
[6] = system: CAKI-1 renal
[7] = system: CCRF-CEM leukemia
[8] = system: COLO 205 colon
[9] = system: DU-145 prostate
[10] = system: EKVX NSCLC
[11] = system: HCC-2998 colon
[12] = system: HCT-116 colon
[13] = system: HCT-15 colon
[14] = system: HL-60(TB) leukemia
[15] = system: HOP-62 NSCLC
[16] = system: HOP-92 NSCLC
[17] = system: HS 578T breast
[18] = system: HT29 colon
[19] = system: IGROV1 ovarian
[20] = system: K-562 leukemia
[21] = system: KM12 colon
[22] = system: LOX IMVI melanoma
[23] = system: M14 melanoma
[24] = system: MALME-3M melanoma
[25] = system: MCF7 breast
[26] = system: MDA-MB-231 breast
[27] = system: MDA-MB-435
[28] = system: MOLT-4 leukemia
[29] = system: NCI-H226 lung
[30] = system: NCI-H23 lung
[31] = system: NCI-H460 lung
[32] = system: NCI-H522 lung
[33] = system: NCI/ADR-RES ovarian
[34] = system: OVCAR-3 ovarian
[35] = system: OVCAR-4 ovarian
[36] = system: OVCAR-5 ovarian
[37] = system: OVCAR-8 ovarian
[38] = system: PC-3 prostate
[39] = system: RPMI-8226 leukemia
[40] = system: RXF 393 renal
[41] = system: SF-268 CNS
[42] = system: SF-295 CNS
[43] = system: SF-539 CNS
[44] = system: SK-MEL-2 melanoma
[45] = system: SK-MEL-28 melanoma
[46] = system: SK-MEL-5 melanoma
[47] = system: SK-OV-3 ovarian
[48] = system: SN12C renal
[49] = system: SNB-19 CNS
[50] = system: SNB-75 CNS
[51] = system: SR leukemia
[52] = system: SW-620 colon
[53] = system: T-47D breast
[54] = system: TK-10 renal
[55] = system: U251 CNS
[56] = system: UACC-257 melanoma
[57] = system: UACC-62 melanoma
[58] = system: UO-31 renal

CC(C)(C)NC(=O)[C@H]1CC[C@H]2[C@@H]3CC[C@H]4NC(=O)C=C[C@]4(C)[C@H]3CC[C@]12C
> 100 µM: TGI [1] | TGI [2] | TGI [3] | TGI [4] | TGI [5] | TGI [6] | TGI [7] | TGI [8] | TGI [9] | TGI [10] | TGI [11] | TGI [12] | TGI [13] | TGI [14] | TGI [15] | TGI [16] | TGI [17] | TGI [18] | TGI [19] | TGI [20] | TGI [21] | TGI [22] | TGI [23] | TGI [24] | TGI [25] | TGI [26] | TGI [27] | TGI [28] | TGI [29] | TGI [30] | TGI [31] | TGI [32] | TGI [33] | TGI [34] | TGI [35] | TGI [36] | TGI [37] | TGI [38] | TGI [39] | TGI [40] | TGI [41] | TGI [42] | TGI [43] | TGI [44] | TGI [45] | TGI [46] | TGI [47] | TGI [48] | TGI [49] | TGI [50] | TGI [51] | TGI [52] | TGI [53] | TGI [54] | TGI [55] | TGI [56] | TGI [57] | TGI [58]
inactive: GI50 [1] > 100 µM | GI50 [2] 54.2 µM | GI50 [3] > 100 µM | GI50 [4] > 100 µM | GI50 [5] 81.9 µM and > 100 µM | GI50 [6] 77.9 µM and > 100 µM | GI50 [7] 84.2 µM and > 100 µM | GI50 [8] > 100 µM | GI50 [9] > 100 µM | GI50 [10] 70.1 µM and > 100 µM | GI50 [11] > 100 µM | GI50 [12] > 100 µM | GI50 [13] > 100 µM | GI50 [14] 41.6 µM and > 100 µM | GI50 [15] > 100 µM | GI50 [16] 30.3 µM | GI50 [17] > 100 µM | GI50 [18] 44.9 µM and 69.6 µM | GI50 [19] > 100 µM | GI50 [20] 53.5 µM and > 100 µM | GI50 [21] > 100 µM | GI50 [22] > 100 µM | GI50 [23] > 100 µM | GI50 [24] 74.5 µM and > 100 µM | GI50 [25] > 100 µM | GI50 [26] > 100 µM | GI50 [27] > 100 µM | GI50 [28] 66 µM and > 100 µM | GI50 [29] > 100 µM | GI50 [30] > 100 µM | GI50 [31] > 100 µM | GI50 [32] 23.2 µM and > 100 µM | GI50 [33] > 100 µM | GI50 [34] > 100 µM | GI50 [35] > 100 µM | GI50 [36] > 100 µM | GI50 [37] > 100 µM | GI50 [38] 61 µM and > 100 µM | GI50 [39] 42.8 µM and 67.2 µM | GI50 [40] > 100 µM | GI50 [41] > 100 µM | GI50 [42] > 100 µM | GI50 [43] > 100 µM | GI50 [45] > 100 µM | GI50 [46] 43.1 µM and > 100 µM | GI50 [47] > 100 µM | GI50 [48] > 100 µM | GI50 [49] > 100 µM | GI50 [50] > 100 µM | GI50 [51] > 100 µM | GI50 [52] > 100 µM | GI50 [53] > 100 µM and 67.2 µM | GI50 [54] > 100 µM | GI50 [55] > 100 µM | GI50 [56] 48.3 µM and > 100 µM | GI50 [57] > 100 µM | GI50 [58] 71.1 µM and > 100 µM
